Assay results from patent US20240376154A1, “BIS-INTERCALATING PEPTIDES, CONJUGATES AND METHODS OF USE” (ZYMEWORKS BC INC., priority 2023, published 2024).

Experiments:
[1] = Lipophilicity by experimental HPLC retention time; assay type: physicochemical; conditions: HPLC retention time as measure of lipophilicity; C18, 10 to 90% CH3CN/H2O with 0.1% FA over 25 min
Procedure, shortened: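 Reversed-phase HPLC with diode array detection on a Kinetex EVO C18 150×4.6, 2.6 μm column. Gradient 10 to 90% CH3CN/H2O with 0.1% FA over 25 min; retention time serves as the lipophilicity measure.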

herring sperm DNA = assay: DNA melting temperature by differential scanning calorimetry (DSC); assay type: binding; conditions: for DNA melt (° C.): DSC, herring sperm DNA, DNA melting temperature = 68° C.; for DNA binding (in words): only DSC data in Table 7.1
Description: Representative compounds prepared as described in Example 2 were assessed in two complementary DNA-binding assays. Increased melting temperature of herring sperm DNA was measured using differential scanning calorimetry (DSC) and binding kinetics were determined by surface plasmon resonance (SPR) using a short DNA hairpin sequence.
DSC experiments were conducted as described in Leng, 2003, Nucleic Acids Res., 31 (21): […], using a Nano DSC (TA Instruments, New Castle, DE) and analyzed using the NanoAnalyze™ software package. Herring sperm DNA solution (Invitrogen 15634017, 10 mg/mL) was diluted to 1 mg/mL (1.4 mM base pair) in BPE buffer (6 mM Na2HPO4, 2 mM NaH2PO4, 1 mM Na4EDTA, pH 7.0). Test articles (20 μL, 10 mM in DMSO) were added and allowed reach equilibrium binding (>3 h), any insoluble material was removed by low-speed centrifugation, then samples were heated from 25 to 110° C. at a scan rate of 1° C./min. Melting curves were plotted and melting temperature was determined using NanoAnalyze™.

[2] = system: tumour cells (at least 4 of a panel of ovarian, breast, lung, pancreatic, placenta, colon cell lines); assay: In vitro cytotoxicity (cell proliferation, CellTiter-Glo), average over tumour cell line panel; assay type: cell-based; conditions: average pIC50 on all cell lines tested; 5 nights incubation; CellTiter-Glo
Procedure, shortened: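 Each cell line seeded at ~1000 cells/well and left to adhere overnight, then given a 10-point 1:3 compound titration for 5 nights at 37° C, 5% CO2. Viability read by CellTiter-Glo luminescence; IC50 per line, reported as pIC50 averaged across at least 4 lines.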

[3] = Stability in female mouse plasma; assay type: in vitro ADME; conditions: 37° C., 24 h; for half-life at 1 μM: female, mouse, plasma; for plasma stability (in words): 1 μM
Description: The stability of exemplary compounds of general Formula I in mouse plasma was evaluated as follows.
Compounds were incubated at 1 μM in duplicate in female mouse plasma, 250 μL final volume, at 37° C. for 24 h. Aliquots were sampled at 0, 15, 30, 60, 120, 240, 480 and 1440 min. Proteins were precipitated by addition of 5 volumes of cold methanol. After centrifugation 10000×g for 10 min, the residual concentration of compound in the supernatant was measured using an appropriate LC-MS/MS method. The measured concentrations were expressed as a function of time through a one-phase decay exponential regression calculated using GraphPad Prism software (GraphPad Software, Inc.) to generate the plasma half-life for each compound.

Row | Compound | HPLC [1] [min] | DNA melt (° C.) (herring sperm DNA) | pIC50 (average) [2] | half-life at 1 μM [3] [h] | plasma stability (in words) [3] | DNA binding (in words) (herring sperm DNA)
1 | CC(C)[C@H]1C(=O)NC[C@@H](NC(=O)c2nc3ccccc3cc2O)C(=O)N2CCCC[C@H]2C(=O)NCC(=O)N(C)CC(=O)N(C)[C@@H](C(C)C)C(=O)OC[C@@H](NC(=O)c2nc3ccccc3cc2O)C(=O)N2CCCC[C@H]2C(=O)NCC(=O)N(C)CC(=O)N1C [Compound 14, N,N′-((7R,11S,19aS,26R,30S,38aS)-11,30-diisopropyl-12,15,31,34-tetramethyl-6,10,13,16,19,25,29,32,35,38-decaoxotetratriacontahydro-2H,6H,10H-dipyrido[2,1-b1: 2′,1′-l][1]oxa[4,7,10,13,17,20,23,26,29]nonaazacyclodotriacontine-7,26-diyl)bis(3-hydroxyquinoline-2-carboxamide)] | 19.6 | 97 °C | 8.5 | 12.3 |  | 
2 | CC[C@H](C)[C@H]1C(=O)NC[C@@H](NC(=O)c2nc3ccccc3cc2O)C(=O)N2CCCC[C@H]2C(=O)NCC(=O)N(C)CC(=O)N(C)[C@@H]([C@@H](C)CC)C(=O)NC[C@@H](NC(=O)c2nc3ccccc3cc2O)C(=O)N2CCCC[C@H]2C(=O)NCC(=O)N(C)CC(=O)N1C [Compound 67, N,N′-((7R,11S,19aS,26R,30S,38aS)-11,30-di((S)-sec-butyl)-12,15,31,34-tetramethyl-6,10,13,16,19,25,29,32,35,38-decaoxohexatriacontahydro-2H,6H-dipyrido[1,2-a:1′,2′-q][1,4,7,10,13,17,20,23,26,29]decaazacyclodotriacontine-7,26-diyl)bis(3-hydroxyquinoline-2-carboxamide)] | 18.8 | 91 °C | 8.6 |  | stability over the course of the experiment | 
3 | CC(C)[C@H]1C(=O)NC[C@@H](NC(=O)c2nc3ccccc3cc2O)C(=O)N2CCCC[C@H]2C(=O)NCC(=O)N(C)CC(=O)N(C)[C@@H](C2CCCCC2)C(=O)NC[C@@H](NC(=O)c2nc3ccccc3cc2O)C(=O)N2CCCC[C@H]2C(=O)NCC(=O)N(C)CC(=O)N1C [Compound 97, N,N′-((7R,11S,19aS,26R,30S,38aS)-11-cyclohexyl-30-isopropyl-12,15,31,34-tetramethyl-6,10,13,16,19,25,29,32,35,38-decaoxohexatriacontahydro-2H,6H-dipyrido[1,2-a:1′,2′-q][1,4,7,10,13,17,20,23,26,29]decaazacyclodotriacontine-7,26-diyl)bis(3-hydroxyquinoline-2-carboxamide)] | 18.9 | 86 °C | 8.4 |  |  | 
4 | CCN1CC(=O)N(C)[C@@H](C(C)C)C(=O)NC[C@@H](NC(=O)c2nc3ccccc3cc2O)C(=O)N2CCCC[C@H]2C(=O)NCC(=O)N(CC)CC(=O)N(C)[C@@H](C(C)C)C(=O)NC[C@@H](NC(=O)c2nc3ccccc3cc2O)C(=O)N2CCCC[C@H]2C(=O)NCC1=O [Compound 132, N,N′-((7R,11S,19aS,26R,30S,38aS)-15,34-diethyl-11,30-diisopropyl-12,31-dimethyl-6,10,13,16,19,25,29,32,35,38-decaoxohexatriacontahydro-2H,6H-dipyrido[1,2-a:1′,2′-q][1,4,7,10,13,17,20,23,26,29]decaazacyclodotriacontine-7,26-diyl)bis(3-hydroxyquinoline-2-carboxamide)] | 18.5 |  | 8.6 |  | stability over the course of the experiment | 
5 | CC(C)[C@H]1COC[C@@H](NC(=O)c2nc3ccccc3cc2O)C(=O)N2CCCC[C@H]2C(=O)NCC(=O)N(C)CC(=O)N(C)[C@@H](C(C)C)COC[C@@H](NC(=O)c2nc3ccccc3cc2O)C(=O)N2CCCC[C@H]2C(=O)NCC(=O)N(C)CC(=O)N1C [Compound 172, N,N′-((7R,11S,19aS,26R,30S,38aS)-11,30-diisopropyl-12,15,31,34-tetramethyl-6,13,16,19,25,32,35,38-octaoxodotriacontahydro-2H,6H,10H,25H-dipyrido[2,1-b1: 2′,1′-l][1,17]dioxa[4,7,10,13,20,23,26,29]octaazacyclodotriacontine-7,26-diyl)bis(3-hydroxyquinoline-2-carboxamide)] | 18.2 | 91 °C | 7.9 |  |  | 
6 | CN1CC(=O)N2CCCC[C@H]2COC[C@@H](NC(=O)c2nc3ccccc3cc2O)C(=O)N2CCCC[C@H]2C(=O)NCC(=O)N(C)CC(=O)N2CCCC[C@H]2C(=O)NC[C@@H](NC(=O)c2nc3ccccc3cc2O)C(=O)N2CCCC[C@H]2C(=O)NCC1=O [Compound 187, N,N′-((7R,10aS,22aS,29R,32aS,44aS)-18,40-dimethyl-6,16,19,22,28,32,38,41,44-nonaoxodotetracontahydro-6H-tetrapyrido[2,1-b1: 2′,1′-c: 2″,1″-1:2′″,1′″-s][1]oxa[4,7,10,13,17,20,23,26,29]nonaazacyclodotriacontine-7,29-diyl)bis(3-hydroxyquinoline-2-carboxamide)] | 16.6 | 94 °C | 8.0 |  |  | 
7 | CC(C)[C@H]1COC[C@@H](NC(=O)c2nc3ccccc3cc2O)C(=O)N2CCCC[C@H]2C(=O)NCC(=O)N(C)CC(=O)N(C)[C@@H](C(C)C)C(=O)OC[C@@H](NC(=O)c2nc3ccccc3cc2O)C(=O)N2CCCC[C@H]2C(=O)NCC(=O)N(C)CC(=O)N1C [Compound 203, N,N′-((7R,11S,19aS,26R,30S,38aS)-11,30-diisopropyl-12,15,31,34-tetramethyl-6,10,13,16,19,25,32,35,38-nonaoxodotriacontahydro-2H,6H,10H,25H-dipyrido[2,1-b1: 2′,1′-1][1,17]dioxa[4,7,10,13,20,23,26,29]octaazacyclodotriacontine-7,26-diyl)bis(3-hydroxyquinoline-2-carboxamide)] | 20.2 | 96 °C | 8.5 |  |  | 
8 | CC(C)[C@H]1C(=O)NC[C@@H](NC(=O)c2nc3ccccc3cc2O)C(=O)N2CCCC[C@H]2C(=O)NCCOCC(=O)N(C)[C@@H](C(C)C)C(=O)NC[C@@H](NC(=O)c2nc3ccccc3cc2O)C(=O)N2CCCC[C@H]2C(=O)NCCOCC(=O)N1C [Compound 404, N,N′-((7R,11S,19aS,26R,30S,38aS)-11,30-diisopropyl-12,31-dimethyl-6,10,13,19,25,29,32,38-octaoxodotriacontahydro-2H,6H,16H,25H-dipyrido[1,2-a1: 1′,2′-k][1,17]dioxa[4,7,11,14,20,23,27,30]octaazacyclodotriacontine-7,26-diyl)bis(3-hydroxyquinoline-2-carboxamide)] | 16.0 | 68^1 °C | Inactive |  |  | did not demonstrate measurable DNA binding
9 | O=C(N[C@@H]1CNC(=O)[C@@H]2CCCCN2C(=O)COCCNC(=O)[C@@H]2CCCCN2C(=O)[C@H](NC(=O)c2nc3ccccc3cc2O)CNC(=O)[C@@H]2CCCCN2C(=O)COCCNC(=O)[C@@H]2CCCCN2C1=O)c1nc2ccccc2cc1O [Compound 409, N,N′-((7R,10aS,22aS,29R,32aS,44aS)-6,10,16,22,28,32,38,44-octaoxotetracontahydro-2H,19H-tetrapyrido[1,2-a1: 1′,2′-d: 1″,2″-k: 1′″,2′″-t][1,17]dioxa[4,7,11,14,20,23,27,30]octaazacyclodotriacontine-7,29-diyl)bis(3-hydroxyquinoline-2-carboxamide)] | 16.1 | 68^1 °C | inactive |  |  | did not demonstrate measurable DNA binding
10 | CCOC(=O)[C@H](CCc1ccccc1)N[C@@H](C)C(=O)N1CCC[C@H]1C(=O)O [Enalapril, reference compound] |  |  |  | 2.7 |  | 
